The target in one experiment is Carbonic anhydrase 2 (Homo sapiens, UniProt P00918).
The next experiment concerns the target Carbonic anhydrase 1 (Homo sapiens, UniProt P00915).

pKi: −log10 of the molar value.

From ChEMBL document CHEMBL1135997, “Nonaromatic sulfonamide group as an ideal anchor for potent human carbonic anhydrase inhibitors: role of hydrogen-bonding networks in ligand binding and drug design” (J Med Chem, 2002) come the findings set out here.

Chain of Carbonic anhydrase 1 (P00915 whole entry): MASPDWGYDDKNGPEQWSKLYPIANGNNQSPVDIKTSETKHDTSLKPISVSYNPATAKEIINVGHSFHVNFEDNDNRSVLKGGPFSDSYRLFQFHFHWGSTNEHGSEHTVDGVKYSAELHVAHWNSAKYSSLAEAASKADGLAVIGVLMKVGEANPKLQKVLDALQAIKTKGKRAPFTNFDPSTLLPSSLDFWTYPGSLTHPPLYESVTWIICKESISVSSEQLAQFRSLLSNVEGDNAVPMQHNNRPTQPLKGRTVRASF

At Carbonic anhydrase 2, `C/C(=N/S(N)(=O)=O)c1ccc(N(C)C)cc1` had a pKi of 7.70.

`O=C(NS(=O)(=O)O)NS(=O)(=O)c1ccc(F)cc1`: the pKi on Carbonic anhydrase 1 is 7.10; on Carbonic anhydrase 2, 6.05.

`NS(=O)(=O)NC(=O)NS(=O)(=O)c1ccc(F)cc1`: the negative-log Ki (pKi) on Carbonic anhydrase 1 was 8.22; on Carbonic anhydrase 2 it was 7.70.

Consider `NS(=O)(=O)NS(=O)(=O)c1cccc(C(=O)O)c1`, for which the pKi on Carbonic anhydrase 1 was 8.22; at Carbonic anhydrase 2, 8.00.

Consider `NS(=O)(=O)NS(=O)(=O)c1c(F)c(F)c(F)c(F)c1F`, for which the pKi on Carbonic anhydrase 1 is 8.52; at Carbonic anhydrase 2, 8.00.

Turning to `O=S(=O)(O)NS(=O)(=O)c1c(F)c(F)c(F)c(F)c1F` [(PENTAFLUOROPHENYL)SULFONYLSULFAMIC ACID], the results for the pKi on Carbonic anhydrase 1 and on Carbonic anhydrase 2 were 7.30 and 5.92, respectively.
